PubChem BioAssay (NCI)
Values joined by “and” are separate entries in the source; they are usually repeats but may differ in a detail not shown here. Equal values may be shown once.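 Grown in 96-well plates, cells were treated for 48 hours with each compound at five concentrations. Insufficient inhibition: endpoint recorded as highest concentration tested. GI50 marks 50% less growth. TGI is the concentration that stops growth completely.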

Legend:
Test in all cases: growth of human tumour cells (NCI), 48 h
[1] = tested on: ACHN renal
[2] = tested on: T-47D breast
[3] = tested on: RXF 393 renal
[4] = tested on: HCT-15 colon
[5] = tested on: EKVX NSCLC
[6] = tested on: RPMI-8226 leukemia
[7] = tested on: OVCAR-3 ovarian
[8] = tested on: SK-MEL-5 melanoma
[9] = tested on: NCI-H23 lung
[10] = tested on: COLO 205 colon

SMILES	GI50 [1]	TGI [1]	GI50 [2]	TGI [2]	GI50 [3]	TGI [3]	GI50 [4]	TGI [4]	GI50 [5]	TGI [5]	GI50 [6]	TGI [6]	GI50 [7]	TGI [7]	GI50 [8]	TGI [8]	GI50 [9]	TGI [9]	GI50 [10]	TGI [10]
O=C(/C(=C/c1ccccc1)CN1CCCCC1)c1ccccc1	0.518 µM	1.44 µM	0.801 µM	3.2 µM	0.481 µM	1.21 µM	0.617 µM	3.34 µM	2.51 µM	9.23 µM	0.8 µM	5.13 µM	0.679 µM	2.16 µM	1.43 µM	2.94 µM	1.49 µM	4.3 µM	0.447 µM	1.41 µM
CCCCNCC(=O)O[C@]1(CC)C(=O)OCc2c1cc1n(c2=O)Cc2cc3ccccc3nc2-1	–	3.77 µM	–	2.44 µM	–	2.15 µM	–	> 100 µM	–	> 100 µM	–	5.77 µM	–	12.8 µM	–	1.27 µM	–	0.877 µM	–	17.5 µM
O=C(c1ccccc1)C(CN1CCOCC1)c1ccccc1 (stereo not given)	1.3 µM	2.71 µM	3 µM	9.87 µM	1.8 µM	3.36 µM	0.641 µM	2.21 µM	3.32 µM	16.9 µM	0.793 µM	4.74 µM	0.465 µM	1.66 µM	1.76 µM	3.77 µM	2.79 µM	12.3 µM	1.76 µM	3.32 µM
CCN=C1C=CC(=C(c2ccc(N)cc2)c2ccc(N(CC)CC)c(C)c2)C=C1	0.422 µM	2.66 µM	0.222 µM	1.34 µM	0.4 µM	1.86 µM	0.917 µM	4.77 µM	0.266 µM	11.1 µM	0.149 µM	0.882 µM	0.368 µM	1.26 µM	0.208 µM	0.44 µM	0.318 µM	1.3 µM	0.185 µM	0.4 µM
O=S(=O)(NCCNC/C=C/c1ccc(Br)cc1)c1cccc2cnccc12	10.3 µM and 12.5 µM	22.8 µM and 26.2 µM	3.93 µM and 6.45 µM	18.4 µM and 26 µM	3.37 µM and 9.08 µM	15.6 µM and 22.3 µM	11.2 µM and 11.4 µM	27.3 µM and 25.5 µM	5.25 µM and 6.38 µM	22.9 µM and 20.5 µM	5.2 µM and 12 µM	25.3 µM and 35.2 µM	12 µM and 14.2 µM	24.6 µM and 28.3 µM	6.07 µM and 13.3 µM	19.3 µM and 26.5 µM	11.3 µM and 13.1 µM	25.8 µM and 27.5 µM	2.23 µM and 10.7 µM	4.9 µM and 24.6 µM
CN1CCN(Cc2ccc(NC(=O)c3cncc(C#Cc4cnc(N)c5ccncc45)c3)cc2C(F)(F)F)CC1	0.581 µM	4.02 µM	1.75 µM	12.5 µM	0.516 µM	2.28 µM	1.42 µM	5.84 µM	1.44 µM	> 16.8 µM	1.09 µM	5.77 µM	1.53 µM	7.51 µM	1.18 µM	3.93 µM	0.9 µM	6.79 µM	0.181 µM	1.95 µM
CN(C)CCCN1c2ccccc2CCc2ccc(Cl)cc21	3.81 µM	13.5 µM	3.26 µM	10.6 µM	2 µM	7.66 µM	3.35 µM	12.1 µM	10.9 µM	26.4 µM	2.62 µM	8.26 µM	9.17 µM	23.1 µM	1.54 µM	2.9 µM	7.51 µM	21.9 µM	1.91 µM	3.53 µM
Cc1ccc(C(=O)Nc2ccc(CN3CCN(C)CC3)c(C(F)(F)F)c2)cc1C#Cc1cnc2cccnn12	0.191 µM and 0.322 µM	1.09 µM and 3.24 µM	0.54 µM and 1.68 µM	2.07 µM and 4.37 µM	0.224 µM and 0.53 µM	0.972 µM and 2.21 µM	0.313 µM and 0.501 µM	1.27 µM and 3.42 µM	0.635 µM and 1.79 µM	2.27 µM and 5.14 µM	0.627 µM and 1.15 µM	3.01 µM and 4.26 µM	0.785 µM and 1.36 µM	2.07 µM and 4.2 µM	0.79 µM and 2.74 µM	2.04 µM and 4.66 µM	0.964 µM	4.15 µM	0.328 µM and 0.879 µM	1.24 µM and 3.01 µM
CN(C)c1ccc2c(c1)Sc1cc(N(C)C)ccc1N2C(=O)c1ccccc1	32.4 µM	> 100 µM	35.2 µM	> 100 µM	28.7 µM	> 100 µM	59.2 µM	> 100 µM	13.2 µM	> 100 µM	76.1 µM	> 100 µM	25.7 µM	> 100 µM	28.1 µM	> 100 µM	27.7 µM	> 100 µM	> 100 µM	> 100 µM
O=C1C=C(Br)c2c(-c3ccccc3)oc3cccc1c23	–	> 100 µM	–	> 100 µM	–	> 83.9 µM	–	> 87.1 µM	–	> 100 µM	–	> 79 µM	–	> 100 µM	–	> 100 µM	–	> 100 µM	–	> 100 µM
C=CC(=O)Nc1cccc(C)c1Nc1cc(-c2cccnc2Cc2c(C)c(OC)cc(OC)c2C)ncn1	17.3 µM	> 100 µM	7.92 µM	> 100 µM	2.52 µM	7.89 µM	14.4 µM	47.2 µM	28.8 µM	> 100 µM	3.37 µM	24.9 µM	7.04 µM	38.9 µM	10.7 µM	23.5 µM	12.7 µM	47.3 µM	13.1 µM	> 100 µM
Cc1cc(N/N=C/c2nc(-c3ccc(Br)cc3)oc2C)c2cc(Cl)ccc2n1	> 100 µM	> 100 µM	> 100 µM	> 100 µM	> 100 µM	> 100 µM	> 100 µM	> 100 µM	> 100 µM	> 100 µM	> 100 µM	> 100 µM	> 100 µM	> 100 µM	> 100 µM	> 100 µM	> 100 µM	> 100 µM	> 100 µM	> 100 µM
COc1ccc(C(OCC2OC(n3ccc(NC(=O)c4ccccc4)nc3=O)C(O)C2O)(c2ccccc2)c2ccccc2)cc1 (stereo not given)	–	7.59 µM	–	9.42 µM	–	10.8 µM	–	3.87 µM	–	6.1 µM	–	4.64 µM	–	3.15 µM	–	3.32 µM	–	3 µM	–	3.7 µM
CCN1CCC(CCOC)(CN2c3ccccc3Sc3ccc(Cl)cc32)C1 (stereo not given)	1.78 µM	3.44 µM	2.05 µM	4.6 µM	1.77 µM	4.03 µM	2.04 µM	4.26 µM	2.04 µM	5.91 µM	2.52 µM	5.7 µM	1.88 µM	4.1 µM	1.69 µM	3.07 µM	2.2 µM	6.16 µM	1.71 µM	3.29 µM
Clc1cc(Cl)c(OCC#CI)cc1Cl	3.01 µM	12 µM	1.22 µM	3.01 µM	2.37 µM	6.28 µM	5.02 µM	23.5 µM	14 µM	30.2 µM	2.27 µM	8.38 µM	1.85 µM	3.91 µM	5.93 µM	18.9 µM	12.6 µM	26.7 µM	1.57 µM	3.06 µM
C[C@]12CC[C@H]3[C@@H](CCC4=CC(=O)CC[C@@H]43)[C@@H]1CC[C@@H]2OC(=O)CCc1ccccc1	18.9 µM	45.1 µM	21.8 µM	66.6 µM	19.6 µM	43.5 µM	24.6 µM	> 89.7 µM	2.23 µM	28.7 µM	14.6 µM	47 µM	15.8 µM	30 µM	13 µM	26 µM	19.9 µM	44.1 µM	16.3 µM	40.1 µM
N#Cc1c(N/N=C/c2c(Cl)cccc2Cl)nc(N)nc1N1CCOCC1	5.48 µM	> 100 µM	48 µM	> 100 µM	16.6 µM	94.2 µM	4.52 µM	57.4 µM	54.1 µM	> 100 µM	3.86 µM	26.2 µM	3.6 µM	> 100 µM	3.71 µM	24 µM	44.5 µM	> 100 µM	14.9 µM	> 100 µM
O=C1C(=O)c2c(nc3ccc(Cl)cn23)-c2ccccc21	0.591 µM	1.88 µM	0.394 µM	1.6 µM	0.564 µM	5.61 µM	1.08 µM	2.73 µM	1.65 µM	3.38 µM	0.35 µM	2.88 µM	0.249 µM	0.908 µM	0.161 µM	0.309 µM	0.324 µM	1.47 µM	1.79 µM	3.54 µM
COc1cc2c(cc1OCCCCOc1cc3c(cc1OC)C(=O)N1CCC[C@H]1CN3)N=C[C@@H]1CCCN1C2=O	2.62 µM	29 µM	0.512 µM	> 100 µM	0.29 µM	1.45 µM	25.2 µM	> 93.3 µM	5.13 µM	76.5 µM	0.575 µM	4.84 µM	2.05 µM	6.38 µM	0.463 µM	1.62 µM	2.22 µM	5.8 µM	1.3 µM	5.33 µM
O=c1[nH]c2ccccc2nc1-c1c[nH]c2ccccc12	> 100 µM	> 100 µM	8.63 µM	> 100 µM	7.41 µM	> 100 µM	> 100 µM	> 100 µM	18.8 µM	> 100 µM	> 100 µM	> 100 µM	9.57 µM	> 100 µM	> 100 µM	> 100 µM	> 100 µM	> 100 µM	> 100 µM	> 100 µM
O=C(O)C/C=C/CC(=O)O	–	> 100 µM	–	> 100 µM	–	> 100 µM	–	> 100 µM	–	> 100 µM	–	> 100 µM	–	> 100 µM	–	> 100 µM	–	> 100 µM	–	> 100 µM
